According to PMC12394658, “Discovery of Zharp1-163 as a dual inhibitor of ferroptosis and necroptosis for the treatment of inflammatory disorders and kidney injury” (Cell Death Discovery, 2025):

How the values were obtained:
Test in all cases: biochemical
Design in all cases: Kinase selectivity panel of 81 human kinases, ADP-Glo or HTRF, per cent inhibition at 1 uM
ABL1 = ABL1 (Homo sapiens, UniProt P00519)
Outline: (§1)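 Kinase-panel selectivity profiling of 81 kinases with compound at 1000 nM.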

BRAF = BRAF (Homo sapiens, UniProt P15056)
Outline: as §1

CK1α = biological target: T1, CK1α (Homo sapiens, UniProt P48729)
T1 construct: gene CSNK1A1
Outline: as §1

CK1γ2 = biological target: T2, CK1γ2 (Homo sapiens, UniProt P78368)
T2 construct: gene CSNK1G2
Outline: as §1

CK2α1/β = biological target: T3, CK2α1/β (Homo sapiens, UniProt P68400)
T3 construct: gene CSNK2A1
Outline: as §1

DCAMKL2 = biological target: T4, DCAMKL2 (Homo sapiens, UniProt Q8N568)
T4 construct: gene DCLK2
Outline: as §1

EPHB4 = EPHB4 (Homo sapiens, UniProt P54760)
Outline: as §1

Erk2 = biological target: T5, Erk2 (Homo sapiens, UniProt P28482)
T5 construct: gene MAPK1
Outline: as §1

GAK = GAK (Homo sapiens, UniProt O14976)
Outline: as §1

PEK = biological target: T6, PEK (Homo sapiens, UniProt Q9NZJ5)
T6 construct: gene EIF2AK3
Outline: as §1

TGFβR1 = biological target: T7, TGFβR1 (Homo sapiens, UniProt P36897)
T7 construct: gene TGFBR1
Outline: as §1

TGFβR2 = biological target: T8, TGFβR2 (Homo sapiens, UniProt P37173)
T8 construct: gene TGFBR2
Outline: as §1

TIE2 = biological target: T9, TIE2 (Homo sapiens, UniProt Q02763)
T9 construct: gene TEK
Outline: as §1

ULK2 = ULK2 (Homo sapiens, UniProt Q8IYT8)
Outline: as §1

T1 sequence (P48729 whole entry): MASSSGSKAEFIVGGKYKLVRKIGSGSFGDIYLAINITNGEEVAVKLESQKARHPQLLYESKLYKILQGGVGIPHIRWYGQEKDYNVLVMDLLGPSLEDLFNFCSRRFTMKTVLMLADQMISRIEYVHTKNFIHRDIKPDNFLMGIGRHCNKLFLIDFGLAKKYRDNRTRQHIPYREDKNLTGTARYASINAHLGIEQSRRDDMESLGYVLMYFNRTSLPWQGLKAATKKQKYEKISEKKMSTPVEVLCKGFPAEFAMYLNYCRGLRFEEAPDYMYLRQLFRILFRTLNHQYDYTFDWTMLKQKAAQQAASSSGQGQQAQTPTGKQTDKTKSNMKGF
T2 sequence (P78368 whole entry): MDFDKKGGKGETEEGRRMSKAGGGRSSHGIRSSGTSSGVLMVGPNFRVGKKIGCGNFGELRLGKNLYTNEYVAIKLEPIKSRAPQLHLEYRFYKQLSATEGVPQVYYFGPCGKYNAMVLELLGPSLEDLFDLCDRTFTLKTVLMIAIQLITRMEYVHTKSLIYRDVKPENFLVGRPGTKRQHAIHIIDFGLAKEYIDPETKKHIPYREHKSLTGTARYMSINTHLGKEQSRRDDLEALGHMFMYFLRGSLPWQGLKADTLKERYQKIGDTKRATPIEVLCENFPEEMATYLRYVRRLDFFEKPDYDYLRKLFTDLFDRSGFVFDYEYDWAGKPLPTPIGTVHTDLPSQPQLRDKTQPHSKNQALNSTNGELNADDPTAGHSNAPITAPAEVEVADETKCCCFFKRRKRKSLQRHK
T6 sequence (Q9NZJ5 whole entry): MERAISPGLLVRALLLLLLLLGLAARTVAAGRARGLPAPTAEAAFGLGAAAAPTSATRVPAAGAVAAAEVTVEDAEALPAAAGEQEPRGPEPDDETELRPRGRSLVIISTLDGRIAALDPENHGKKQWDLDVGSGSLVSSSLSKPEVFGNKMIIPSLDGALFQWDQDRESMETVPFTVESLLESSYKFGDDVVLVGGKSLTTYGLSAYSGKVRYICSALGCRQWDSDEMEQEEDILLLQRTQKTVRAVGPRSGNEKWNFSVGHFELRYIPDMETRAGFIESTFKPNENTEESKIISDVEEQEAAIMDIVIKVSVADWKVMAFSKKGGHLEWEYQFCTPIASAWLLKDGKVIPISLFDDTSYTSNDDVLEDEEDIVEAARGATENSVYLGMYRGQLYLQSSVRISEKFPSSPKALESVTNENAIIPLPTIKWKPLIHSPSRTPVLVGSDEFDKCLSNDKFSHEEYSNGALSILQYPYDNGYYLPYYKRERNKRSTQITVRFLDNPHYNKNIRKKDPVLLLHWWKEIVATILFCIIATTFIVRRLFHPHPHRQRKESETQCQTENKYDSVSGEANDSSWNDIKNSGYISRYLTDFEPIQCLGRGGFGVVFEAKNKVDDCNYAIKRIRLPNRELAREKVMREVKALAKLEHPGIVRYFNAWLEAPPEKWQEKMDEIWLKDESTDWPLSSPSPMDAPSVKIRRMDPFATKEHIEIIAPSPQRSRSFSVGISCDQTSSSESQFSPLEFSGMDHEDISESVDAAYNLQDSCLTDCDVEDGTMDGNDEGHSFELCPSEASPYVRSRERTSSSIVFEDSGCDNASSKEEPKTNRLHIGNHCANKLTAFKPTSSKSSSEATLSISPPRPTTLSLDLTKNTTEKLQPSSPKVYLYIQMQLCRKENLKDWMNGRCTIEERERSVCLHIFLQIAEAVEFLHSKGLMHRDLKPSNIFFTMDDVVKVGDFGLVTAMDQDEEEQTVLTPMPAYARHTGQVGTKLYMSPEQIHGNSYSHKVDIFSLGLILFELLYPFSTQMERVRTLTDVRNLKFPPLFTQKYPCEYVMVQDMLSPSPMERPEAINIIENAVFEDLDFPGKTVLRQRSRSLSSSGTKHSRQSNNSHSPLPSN
T4 sequence (Q8N568 whole entry): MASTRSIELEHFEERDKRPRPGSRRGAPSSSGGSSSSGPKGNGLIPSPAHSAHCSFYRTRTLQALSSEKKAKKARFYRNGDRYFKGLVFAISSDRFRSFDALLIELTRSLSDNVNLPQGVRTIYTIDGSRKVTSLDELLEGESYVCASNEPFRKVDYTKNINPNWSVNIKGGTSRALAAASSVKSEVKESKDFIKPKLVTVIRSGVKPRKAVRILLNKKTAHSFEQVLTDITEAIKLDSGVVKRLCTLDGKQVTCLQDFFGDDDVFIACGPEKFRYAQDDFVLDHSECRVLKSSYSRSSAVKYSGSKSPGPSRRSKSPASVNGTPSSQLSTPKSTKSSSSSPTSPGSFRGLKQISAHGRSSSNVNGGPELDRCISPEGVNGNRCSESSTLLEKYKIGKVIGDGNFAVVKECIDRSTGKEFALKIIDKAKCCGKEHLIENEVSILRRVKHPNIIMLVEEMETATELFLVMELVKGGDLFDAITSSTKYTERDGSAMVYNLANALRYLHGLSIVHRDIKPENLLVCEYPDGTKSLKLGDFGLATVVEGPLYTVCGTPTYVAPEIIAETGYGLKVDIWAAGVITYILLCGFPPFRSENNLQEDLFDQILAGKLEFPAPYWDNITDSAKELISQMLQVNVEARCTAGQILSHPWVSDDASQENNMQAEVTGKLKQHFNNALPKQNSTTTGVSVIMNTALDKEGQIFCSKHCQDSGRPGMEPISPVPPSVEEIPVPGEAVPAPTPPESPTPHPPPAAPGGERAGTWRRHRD
GAK, sequence (O14976 whole entry): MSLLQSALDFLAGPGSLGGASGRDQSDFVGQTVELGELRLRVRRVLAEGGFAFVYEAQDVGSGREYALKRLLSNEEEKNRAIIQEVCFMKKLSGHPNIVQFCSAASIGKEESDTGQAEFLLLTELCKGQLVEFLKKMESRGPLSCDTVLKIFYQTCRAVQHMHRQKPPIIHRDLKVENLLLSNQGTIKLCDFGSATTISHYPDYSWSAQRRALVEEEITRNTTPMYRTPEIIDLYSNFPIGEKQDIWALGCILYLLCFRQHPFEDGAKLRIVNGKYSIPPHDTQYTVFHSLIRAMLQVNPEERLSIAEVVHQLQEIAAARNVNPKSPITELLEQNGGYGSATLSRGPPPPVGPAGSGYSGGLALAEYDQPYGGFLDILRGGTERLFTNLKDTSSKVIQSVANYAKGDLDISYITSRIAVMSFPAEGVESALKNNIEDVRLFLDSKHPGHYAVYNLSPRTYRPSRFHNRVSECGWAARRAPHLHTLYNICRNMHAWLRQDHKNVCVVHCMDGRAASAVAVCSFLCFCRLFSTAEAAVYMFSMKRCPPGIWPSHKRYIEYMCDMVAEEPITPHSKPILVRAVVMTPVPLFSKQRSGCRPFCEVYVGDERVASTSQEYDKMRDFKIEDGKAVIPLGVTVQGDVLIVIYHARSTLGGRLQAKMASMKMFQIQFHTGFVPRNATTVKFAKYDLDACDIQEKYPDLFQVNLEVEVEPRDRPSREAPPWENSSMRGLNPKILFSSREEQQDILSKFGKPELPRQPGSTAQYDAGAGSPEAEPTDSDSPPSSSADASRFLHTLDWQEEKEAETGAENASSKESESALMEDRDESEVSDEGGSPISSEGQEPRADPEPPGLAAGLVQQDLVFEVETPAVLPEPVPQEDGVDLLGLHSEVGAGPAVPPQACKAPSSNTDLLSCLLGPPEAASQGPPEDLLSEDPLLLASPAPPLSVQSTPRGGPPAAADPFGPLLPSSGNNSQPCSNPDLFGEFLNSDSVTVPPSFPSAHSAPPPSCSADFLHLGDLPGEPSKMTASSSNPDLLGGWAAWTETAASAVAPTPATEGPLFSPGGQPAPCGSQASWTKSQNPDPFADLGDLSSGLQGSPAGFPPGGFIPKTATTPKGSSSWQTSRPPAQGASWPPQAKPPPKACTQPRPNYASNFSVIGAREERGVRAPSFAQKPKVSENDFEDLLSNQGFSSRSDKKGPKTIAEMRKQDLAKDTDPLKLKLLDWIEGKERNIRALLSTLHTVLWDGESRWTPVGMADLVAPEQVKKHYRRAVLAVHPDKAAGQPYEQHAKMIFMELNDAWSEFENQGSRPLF
ABL1, sequence (P00519 whole entry): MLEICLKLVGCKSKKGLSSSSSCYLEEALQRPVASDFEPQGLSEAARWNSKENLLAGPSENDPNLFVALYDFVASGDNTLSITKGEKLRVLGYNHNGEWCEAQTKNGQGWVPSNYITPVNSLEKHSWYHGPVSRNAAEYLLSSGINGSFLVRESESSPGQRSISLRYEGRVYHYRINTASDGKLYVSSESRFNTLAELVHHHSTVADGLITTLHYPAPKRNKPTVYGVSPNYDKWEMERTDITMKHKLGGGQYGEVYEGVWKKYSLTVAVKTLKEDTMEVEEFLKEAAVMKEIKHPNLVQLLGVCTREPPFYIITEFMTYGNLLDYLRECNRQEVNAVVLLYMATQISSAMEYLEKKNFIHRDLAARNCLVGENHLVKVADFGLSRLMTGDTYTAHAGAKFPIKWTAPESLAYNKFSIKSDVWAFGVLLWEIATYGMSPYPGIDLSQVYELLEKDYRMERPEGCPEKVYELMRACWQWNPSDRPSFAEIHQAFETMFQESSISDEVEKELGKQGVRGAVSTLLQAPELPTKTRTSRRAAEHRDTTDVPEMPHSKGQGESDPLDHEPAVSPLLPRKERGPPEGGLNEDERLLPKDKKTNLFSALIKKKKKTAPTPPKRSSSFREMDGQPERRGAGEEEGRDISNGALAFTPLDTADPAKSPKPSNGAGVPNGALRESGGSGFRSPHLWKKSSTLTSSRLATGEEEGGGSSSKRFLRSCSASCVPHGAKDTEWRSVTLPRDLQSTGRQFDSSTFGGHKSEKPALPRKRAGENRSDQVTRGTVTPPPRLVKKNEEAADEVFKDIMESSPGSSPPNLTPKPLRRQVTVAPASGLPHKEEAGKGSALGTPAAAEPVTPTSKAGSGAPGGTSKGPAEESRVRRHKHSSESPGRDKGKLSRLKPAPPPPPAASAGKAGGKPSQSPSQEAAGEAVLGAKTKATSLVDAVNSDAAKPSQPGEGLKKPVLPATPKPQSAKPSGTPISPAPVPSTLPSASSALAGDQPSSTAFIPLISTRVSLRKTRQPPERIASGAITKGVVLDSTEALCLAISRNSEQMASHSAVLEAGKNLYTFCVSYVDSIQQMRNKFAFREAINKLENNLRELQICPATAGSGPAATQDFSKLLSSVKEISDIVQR

SMILES: Nc1cn2cc(-c3cnc4c(c3)N(C(=O)OC3CCCCC3)CCO4)ccc2n1 [Zharp1-163]
- inhibition at 1 µM (ABL1; replicate Data1): 6.71%
- inhibition at 1 µM (ABL1; replicate Data2): 9.11%
- inhibition at 1 µM (BRAF; replicate Data1): 6.11%
- inhibition at 1 µM (BRAF; replicate Data2): -8.57%
- inhibition at 1 µM (CK1α; replicate Data1): -4.65%
- inhibition at 1 µM (CK1α; replicate Data2): -16.6%
- inhibition at 1 µM (CK1γ2; replicate Data1): -3.03%
- inhibition at 1 µM (CK1γ2; replicate Data2): 8.14%
- inhibition at 1 µM (CK2α1/β; replicate Data1): -12.2%
- inhibition at 1 µM (CK2α1/β; replicate Data2): 5.04%
- inhibition at 1 µM (DCAMKL2; replicate Data1): 5.19%
- inhibition at 1 µM (DCAMKL2; replicate Data2): 1.92%
- inhibition at 1 µM (EPHB4; replicate Data1): 1.63%
- inhibition at 1 µM (EPHB4; replicate Data2): -4.43%
- inhibition at 1 µM (Erk2; replicate Data1): 17.9%
- inhibition at 1 µM (Erk2; replicate Data2): 10.3%
- inhibition at 1 µM (GAK; replicate Data1): 18.2%
- inhibition at 1 µM (GAK; replicate Data2): 19.7%
- inhibition at 1 µM (PEK; replicate Data1): 1.73%
- inhibition at 1 µM (PEK; replicate Data2): 19.4%
- inhibition at 1 µM (TGFβR1; replicate Data1): 7.16%
- inhibition at 1 µM (TGFβR1; replicate Data2): 7.76%
- inhibition at 1 µM (TGFβR2; replicate Data1): 7.99%
- inhibition at 1 µM (TGFβR2; replicate Data2): 3.92%
- inhibition at 1 µM (TIE2; replicate Data1): 11.9%
- inhibition at 1 µM (TIE2; replicate Data2): 26.5%
- inhibition at 1 µM (ULK2; replicate Data1): -5.94%
- inhibition at 1 µM (ULK2; replicate Data2): -8.78%
